Results reported in PubChem BioAssay AID2060512 (Molecular Pharmacology Branch, DTP, NCI, 2025).

System: 186277-243-T-J2-PDC complex spheroid viability
Experiment: Anticancer human tumor 186277-243-T-J2-PDC patient-derived colon adenocarcinoma cell line growth inhibition [GQUAD]
Conditions: for IC50: curve of first compound; for viability, T/C: stronger effect = lower value
Summary of the method: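 Multi-cell-type spheroids of tumor cells with HUVEC and mesenchymal stem cells, treated with drug combinations. Concentrations descend in half-log steps from near clinical Cmax, or from 10 microM where Cmax is unknown; viability read-out.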

[1] = second compound 0.0316 µM, first compound 0.000999 µM
[2] = second compound 0.0316 µM, first compound 0.00316 µM
[3] = second compound 0.0316 µM, first compound 0.00999 µM
[4] = second compound 0.0316 µM, first compound 0.0316 µM
[5] = second compound 0.0316 µM, first compound 0.0999 µM
[6] = second compound 0.0316 µM, first compound 0.316 µM
[7] = second compound 0.1 µM, first compound 0.000999 µM
[8] = second compound 0.1 µM, first compound 0.00316 µM
[9] = second compound 0.1 µM, first compound 0.00999 µM
[10] = second compound 0.1 µM, first compound 0.0316 µM
[11] = second compound 0.1 µM, first compound 0.0999 µM
[12] = second compound 0.1 µM, first compound 0.316 µM
[13] = second compound 0.316 µM, first compound 0.000999 µM
[14] = second compound 0.316 µM, first compound 0.00316 µM
[15] = second compound 0.316 µM, first compound 0.00999 µM
[16] = second compound 0.316 µM, first compound 0.0316 µM
[17] = second compound 0.316 µM, first compound 0.0999 µM
[18] = second compound 0.316 µM, first compound 0.316 µM
[19] = second compound 1 µM, first compound 0.000999 µM
[20] = second compound 1 µM, first compound 0.00316 µM
[21] = second compound 1 µM, first compound 0.00999 µM
[22] = second compound 1 µM, first compound 0.0316 µM
[23] = second compound 1 µM, first compound 0.0999 µM
[24] = second compound 1 µM, first compound 0.316 µM
[25] = second compound 3.16 µM, first compound 0.000999 µM
[26] = second compound 3.16 µM, first compound 0.00316 µM
[27] = second compound 3.16 µM, first compound 0.00999 µM
[28] = second compound 3.16 µM, first compound 0.0316 µM
[29] = second compound 3.16 µM, first compound 0.0999 µM
[30] = second compound 3.16 µM, first compound 0.316 µM
[31] = second compound 10 µM, first compound 0.000999 µM
[32] = second compound 10 µM, first compound 0.00316 µM
[33] = second compound 10 µM, first compound 0.00999 µM
[34] = second compound 10 µM, first compound 0.0316 µM
[35] = second compound 10 µM, first compound 0.0999 µM
[36] = second compound 10 µM, first compound 0.316 µM
[37] = second compound 0.0316 µM, first compound 0.1 µM
[38] = second compound 0.0316 µM, first compound 1 µM
[39] = second compound 0.0316 µM, first compound 3.16 µM
[40] = second compound 0.0316 µM, first compound 10 µM
[41] = second compound 0.1 µM, first compound 0.1 µM
[42] = second compound 0.1 µM, first compound 1 µM
[43] = second compound 0.1 µM, first compound 3.16 µM
[44] = second compound 0.1 µM, first compound 10 µM
[45] = second compound 0.316 µM, first compound 0.1 µM
[46] = second compound 0.316 µM, first compound 1 µM
[47] = second compound 0.316 µM, first compound 3.16 µM
[48] = second compound 0.316 µM, first compound 10 µM
[49] = second compound 1 µM, first compound 0.1 µM
[50] = second compound 1 µM, first compound 1 µM
[51] = second compound 1 µM, first compound 3.16 µM
[52] = second compound 1 µM, first compound 10 µM
[53] = second compound 3.16 µM, first compound 0.1 µM
[54] = second compound 3.16 µM, first compound 1 µM
[55] = second compound 3.16 µM, first compound 3.16 µM
[56] = second compound 3.16 µM, first compound 10 µM
[57] = second compound 10 µM, first compound 0.1 µM
[58] = second compound 10 µM, first compound 1 µM
[59] = second compound 10 µM, first compound 3.16 µM
[60] = second compound 10 µM, first compound 10 µM
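Note: spheroids exposed to drugs for 7 days.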
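Throughout, for viability, T/C: 100% = DMSO vehicle control viability.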

Work on CC[C@@]1(O)C(=O)OCc2c1cc1n(c2=O)Cc2cc3c(CN(C)C)c(O)ccc3nc2-1 + Cc1cnc(CNC(=O)c2c(=O)c3ccc(N4CCCN(C)CC4)nc3n3c2sc2ccccc23)cn1 yielded an IC50 (second compound 0.0316 µM) greater than 316 nM, an IC50 (second compound 0.1 µM) of 263 nM and an IC50 (second compound 0.316 µM) of 176 nM. It also gave an IC50 (second compound 1 µM) of less than 0.999 nM, an IC50 (second compound 3.16 µM) of less than 0.999 nM and an IC50 (second compound 10 µM) of less than 0.999 nM. The viability, T/C [1] was 95.2%, the viability, T/C [2] was 85.6% and the viability, T/C [3] was 82.4%. For the same compound, the viability, T/C [4] was 77.1%, the viability, T/C [5] was 64.4% and the viability, T/C [6] was 52.8%. For the same compound, the viability, T/C [7] was 79.6%, the viability, T/C [8] was 74.4% and the viability, T/C [9] was 87.5%. The viability, T/C [10] was 60.9%, the viability, T/C [11] was 66.6% and the viability, T/C [12] was 47.1%. It also gave a viability, T/C [13] of 68.1%, a viability, T/C [14] of 56.5% and a viability, T/C [15] of 71.3%. The viability, T/C [16] was 70.7%, the viability, T/C [17] was 62% and the viability, T/C [18] was 36.6%. It also gave a viability, T/C [19] of 47.9%, a viability, T/C [20] of 38.1% and a viability, T/C [21] of 49.7%. It also gave a viability, T/C [22] of 50.1%, a viability, T/C [23] of 52.2% and a viability, T/C [24] of 38.2%. The viability, T/C [25] was 49.6%, the viability, T/C [26] was 44.2% and the viability, T/C [27] was 46.7%. The viability, T/C [28] was 40.7%, the viability, T/C [29] was 46.2% and the viability, T/C [30] was 27.7%. It also gave a viability, T/C [31] of 39.6%, a viability, T/C [32] of 37.4% and a viability, T/C [33] of 47.1%. It also gave a viability, T/C [34] of 41.8%, a viability, T/C [35] of 41.6% and a viability, T/C [36] of 36.4%.

With CCc1c2c(nc3ccc(O)cc13)-c1cc3c(c(=O)n1C2)COC(=O)[C@]3(O)CC + Cc1cnc(CNC(=O)c2c(=O)c3ccc(N4CCCN(C)CC4)nc3n3c2sc2ccccc23)cn1 the IC50 (second compound 0.0316 µM) was 5.88 nM, the IC50 (second compound 0.1 µM) was 7.11 nM and the IC50 (second compound 0.316 µM) was 3.96 nM. It also gave an IC50 (second compound 1 µM) of less than 0.999 nM, an IC50 (second compound 3.16 µM) of less than 0.999 nM and an IC50 (second compound 10 µM) of less than 0.999 nM. It also gave a viability, T/C [1] of 90.8%, a viability, T/C [2] of 56% and a viability, T/C [3] of 46.3%. It also gave a viability, T/C [4] of 27.8%, a viability, T/C [5] of 23.3% and a viability, T/C [6] of 17.6%. The viability, T/C [7] was 79.3%, the viability, T/C [8] was 56.8% and the viability, T/C [9] was 53.2%. It also gave a viability, T/C [10] of 24.5%, a viability, T/C [11] of 23.4% and a viability, T/C [12] of 13.9%. It also gave a viability, T/C [13] of 60.5%, a viability, T/C [14] of 53.7% and a viability, T/C [15] of 40.9%. For the same compound, the viability, T/C [16] was 31.9%, the viability, T/C [17] was 30.1% and the viability, T/C [18] was 16.9%. For the same compound, the viability, T/C [19] was 44.8%, the viability, T/C [20] was 37.6% and the viability, T/C [21] was 38.3%. The viability, T/C [22] was 31.8%, the viability, T/C [23] was 29.5% and the viability, T/C [24] was 4.66%. It also gave a viability, T/C [25] of 33.5%, a viability, T/C [26] of 39.9% and a viability, T/C [27] of 36.5%. For the same compound, the viability, T/C [28] was 27.9%, the viability, T/C [29] was 25.4% and the viability, T/C [30] was 1.29%. For the same compound, the viability, T/C [31] was 40.2%, the viability, T/C [32] was 32.5% and the viability, T/C [33] was 31.1%. It also gave a viability, T/C [34] of 24.7%, a viability, T/C [35] of 23.3% and a viability, T/C [36] of 0.64%.

COc1cc(C2c3cc4c(cc3C(OC3OC5COC(C)OC5C(O)C3O)C3COC(=O)C23)OCO4)cc(OC)c1O (stereo not drawn) + Cc1cnc(CNC(=O)c2c(=O)c3ccc(N4CCCN(C)CC4)nc3n3c2sc2ccccc23)cn1 showed an IC50 (second compound 0.0316 µM) of 985 nM, an IC50 (second compound 0.1 µM) of 1080 nM and an IC50 (second compound 0.316 µM) of 1630 nM. For the same compound, the IC50 (second compound 1 µM) was less than 31.6 nM, the IC50 (second compound 3.16 µM) was 169 nM and the IC50 (second compound 10 µM) was less than 31.6 nM. The viability, T/C [4] was 105%, the viability, T/C [37] was 93.9% and the viability, T/C [6] was 78.2%. The viability, T/C [38] was 45.1%, the viability, T/C [39] was 33.3% and the viability, T/C [40] was 15.8%. It also gave a viability, T/C [10] of 70.8%, a viability, T/C [41] of 82.5% and a viability, T/C [12] of 69.3%. It also gave a viability, T/C [42] of 46.5%, a viability, T/C [43] of 37.3% and a viability, T/C [44] of 20%. It also gave a viability, T/C [16] of 80.8%, a viability, T/C [45] of 69.8% and a viability, T/C [18] of 55.9%. The viability, T/C [46] was 53.7%, the viability, T/C [47] was 53.3% and the viability, T/C [48] was 20.3%. It also gave a viability, T/C [22] of 43.6%, a viability, T/C [49] of 50.8% and a viability, T/C [24] of 57.5%. It also gave a viability, T/C [50] of 44.9%, a viability, T/C [51] of 42.3% and a viability, T/C [52] of 20%. The viability, T/C [28] was 50.9%, the viability, T/C [53] was 51% and the viability, T/C [30] was 51.4%. It also gave a viability, T/C [54] of 38.8%, a viability, T/C [55] of 30.7% and a viability, T/C [56] of 19.6%. For the same compound, the viability, T/C [34] was 42.7%, the viability, T/C [57] was 35% and the viability, T/C [36] was 45%. It also gave a viability, T/C [58] of 47%, a viability, T/C [59] of 33.7% and a viability, T/C [60] of 17.7%.

Work on COc1cccc2c1C(=O)c1c(O)c3c(c(O)c1C2=O)CC(O)(C(=O)CO)CC3OC1CC(N)C(O)C(C)O1 (stereo not drawn) + Cc1cnc(CNC(=O)c2c(=O)c3ccc(N4CCCN(C)CC4)nc3n3c2sc2ccccc23)cn1 yielded an IC50 (second compound 0.0316 µM) of 433 nM, an IC50 (second compound 0.1 µM) of 634 nM and an IC50 (second compound 0.316 µM) of 350 nM. It also gave an IC50 (second compound 1 µM) of less than 31.6 nM, an IC50 (second compound 3.16 µM) of less than 31.6 nM and an IC50 (second compound 10 µM) of less than 31.6 nM. For the same compound, the viability, T/C [4] was 113%, the viability, T/C [37] was 84.8% and the viability, T/C [6] was 65.2%. It also gave a viability, T/C [38] of 24.3%, a viability, T/C [39] of 1.89% and a viability, T/C [40] of 0.15%. It also gave a viability, T/C [10] of 86.5%, a viability, T/C [41] of 78.3% and a viability, T/C [12] of 77%. For the same compound, the viability, T/C [42] was 32.6%, the viability, T/C [43] was 1.48% and the viability, T/C [44] was 0.63%. It also gave a viability, T/C [16] of 59.4%, a viability, T/C [45] of 56.3% and a viability, T/C [18] of 52.3%. The viability, T/C [46] was 23.8%, the viability, T/C [47] was 0.99% and the viability, T/C [48] was 0.15%. For the same compound, the viability, T/C [22] was 45.9%, the viability, T/C [49] was 37.5% and the viability, T/C [24] was 46.5%. The viability, T/C [50] was 19.9%, the viability, T/C [51] was 0.12% and the viability, T/C [52] was 1.33%. The viability, T/C [28] was 43.5%, the viability, T/C [53] was 54.4% and the viability, T/C [30] was 31.4%. For the same compound, the viability, T/C [54] was 13.3%, the viability, T/C [55] was 2.48% and the viability, T/C [56] was 0.22%. For the same compound, the viability, T/C [34] was 39.9%, the viability, T/C [57] was 41.3% and the viability, T/C [36] was 41.8%. For the same compound, the viability, T/C [58] was 15.9%, the viability, T/C [59] was 0.24% and the viability, T/C [60] was 0.26%.
